Experiments:
[1] = 101 kPa, Liquid; for electrical conductivity: Alternating current cell with electrodes; for viscosity: Falling or rolling sphere viscometry; for mass density: Vibrating tube method
[2] = mn = molality of the nth substance listed, in mol/kg; details: 101 kPa, Liquid, m2 = 0; for electrical conductivity: Alternating current cell with electrodes; for viscosity: Falling or rolling sphere viscometry; for mass density: Vibrating tube method

CCCCn1cc[n+](C)c1.F[B-](F)(F)F [1-butyl-3-methylimidazolium tetrafluoroborate]
[1]
Details | electrical conductivity [S/m] | mass density [kg/m3] | viscosity [mPa·s]
238.15 K | 0.00095 | – | –
258.15 K | 0.0227 | – | –
278.15 K | 0.113 | 1216.3 | 384.5
288.15 K | – | 1209 | 197.7
298.15 K | 0.353 | 1201.8 | 112.3
308.15 K | – | 1194.6 | 68.89
318.15 K | 0.826 | 1187.6 | 45.36
328.15 K | – | 1180.6 | 31.49
338.15 K | 1.548 | 1173.6 | 21.99
348.15 K | – | 1166.7 | 16.54
358.15 K | 2.53 | 1159.9 | 12.84
378.15 K | 3.74 | – | –
398.15 K | 5.13 | – | –
418.15 K | 6.68 | – | –
438.15 K | 8.36 | – | –
458.15 K | 10.13 | – | –

CCCCn1cc[n+](C)c1.F[B-](F)(F)F [1-butyl-3-methylimidazolium tetrafluoroborate] + F[B-](F)(F)F.[Na+]
[2]
Details | electrical conductivity [S/m] | mass density [kg/m3] | viscosity [mPa·s]
238.15 K | 0.00095 | – | –
258.15 K | 0.0227 | – | –
278.15 K | 0.113 | 1216.3 | 384.5
288.15 K | – | 1209 | 197.7
298.15 K | 0.353 | 1201.8 | 112.3
308.15 K | – | 1194.6 | 68.89
318.15 K | 0.826 | 1187.6 | 45.36
328.15 K | – | 1180.6 | 31.49
338.15 K | 1.548 | 1173.6 | 21.99
348.15 K | – | 1166.7 | 16.54
358.15 K | 2.53 | 1159.9 | 12.84
378.15 K | 3.74 | – | –
398.15 K | 5.13 | – | –
418.15 K | 6.68 | – | –
438.15 K | 8.36 | – | –
458.15 K | 10.13 | – | –

Source: the NIST ThermoML archive (doi:10.1021/je300603d)
